Test results from patent US20090131431A1, “Pyrazolo[3,4-b]pyridine compounds, and their use as a PDE4 inhibitors” (priority 2005, published 2009).
Counter-ions that a name gives are not always drawn.

Biological target: T1, PDE4B (human recombinant) (Homo sapiens, UniProt Q07343)
T1 construct: made in house
Test: Inhibition of PDE4B activity: SPA and/or Fluorescence Polarisation (FP) assay
Format: biochemical
Conditions: one reading (n=1) or average of 2 or more readings, read-out: PDE4B pIC50 (±about 0.5) (converted)
How it was run: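 Human recombinant PDE4B activity measured by SPA with [3H]cAMP at about 10 nM, 1 h at ambient temperature, enzyme set for ≤20% substrate hydrolysis, or by IMAP FP with Fl-cAMP at about 40 nM, 40 min at ambient temperature under linear conditions. Inhibition curves fitted; values reported as pIC50.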

T1 sequence (Q07343 1-564 isoform Q07343-2): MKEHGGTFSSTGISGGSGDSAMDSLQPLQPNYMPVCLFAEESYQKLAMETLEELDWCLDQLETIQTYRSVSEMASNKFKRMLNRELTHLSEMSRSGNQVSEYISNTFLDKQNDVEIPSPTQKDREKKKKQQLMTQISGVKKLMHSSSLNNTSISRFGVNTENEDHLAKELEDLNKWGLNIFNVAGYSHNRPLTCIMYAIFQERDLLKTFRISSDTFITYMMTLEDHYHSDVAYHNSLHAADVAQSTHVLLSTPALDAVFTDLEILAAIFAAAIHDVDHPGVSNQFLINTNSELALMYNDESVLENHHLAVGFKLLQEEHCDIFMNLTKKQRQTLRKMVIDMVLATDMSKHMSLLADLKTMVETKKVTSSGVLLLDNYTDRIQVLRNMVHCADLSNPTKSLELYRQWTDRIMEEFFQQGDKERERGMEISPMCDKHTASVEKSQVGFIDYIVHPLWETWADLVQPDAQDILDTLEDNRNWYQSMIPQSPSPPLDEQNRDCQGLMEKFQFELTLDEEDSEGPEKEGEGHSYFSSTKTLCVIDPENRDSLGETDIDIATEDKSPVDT

| SMILES | IC50 [nM] |
| --- | --- |
| CCn1ncc2c(NC3CCOCC3)c(CNC(=O)c3ccc(F)cc3)c(C)nc21 [Example 313, N-{[1-ethyl-6-methyl-4-(tetrahydro-2H-pyran-4-ylamino)-1H-pyrazolo[3,4-b]pyridin-5-yl]methyl}-4-fluorobenzamide] | 0.126 to 1 |
| CCc1nc2c(cnn2CC)c(NC2CCOCC2)c1CNC(=O)c1ccc(C2CCCC2)cc1 [Example 184, 4-cyclopentyl-N-{[1,6-diethyl-4-(tetrahydro-2H-pyran-4-ylamino)-1H-pyrazolo[3,4-b]pyridin-5-yl]methyl}benzamide] | 0.01 to 0.1 |
| CCOc1ccccc1C(=O)NCc1c(CC)nc2c(cnn2CC)c1NC1CCOCC1 [Example 160, N-{[1,6-diethyl-4-(tetrahydro-2H-pyran-4-ylamino)-1H-pyrazolo[3,4-b]pyridin-5-yl]methyl}-2-(ethyloxy)benzamide] | 0.01 to 0.1 |
| CCn1ncc2c(NC3CCOCC3)c(CNC(=O)c3cnc(C)cn3)c(C)nc21 [Example 228, N-{[1-ethyl-6-methyl-4-(tetrahydro-2H-pyran-4-ylamino)-1H-pyrazolo[3,4-b]pyridin-5-yl]methyl}-5-methyl-2-pyrazinecarboxamide] | 0.126 to 1 |
| CCn1ncc2c(NC3CCN(C(N)=O)CC3)c(CNC(=O)c3cccc(NC(C)=O)c3)c(C)nc21 [Example 264, 4-({5-[({[3-(acetylamino)phenyl]carbonyl}amino)methyl]-1-ethyl-6-methyl-1H-pyrazolo[3,4-b]pyridin-4-yl}amino)-1-piperidinecarboxamide] | 0.01 to 0.1 |
| CCc1nc2c(cnn2CC)c(NC2CCOCC2)c1CNC(=O)N1CCCCC1 [Example 290, N-{[1,6-diethyl-4-(tetrahydro-2H-pyran-4-ylamino)-1H-pyrazolo[3,4-b]pyridin-5-yl]methyl}-1-piperidinecarboxamide] | 0.126 to 1 |
| CCn1ncc2c(NC3CCOCC3)c(CNC(=O)c3ccco3)c(C)nc21 [Example 218, N-{[1-ethyl-6-methyl-4-(tetrahydro-2H-pyran-4-ylamino)-1H-pyrazolo[3,4-b]pyridin-5-yl]methyl}-2-furancarboxamide] | 0.126 to 1 |
| CCc1nc2c(cnn2CC)c(NC2CCOCC2)c1CNC(=O)c1ccc(NC(C)=O)c2c1OCC2 [Example 306, 4-(acetylamino)-N-{[1,6-diethyl-4-(tetrahydro-2H-pyran-4-ylamino)-1H-pyrazolo[3,4-b]pyridin-5-yl]methyl}-2,3-dihydro-1-benzofuran-7-carboxamide] | 0.01 to 0.1 |
| CCc1nc2c(cnn2CC)c(NC2CCN(C(N)=O)CC2)c1CNC(=O)c1ccc2c(c1)CCC2 [Example 206, 4-[(5-{[(2,3-dihydro-1H-inden-5-ylcarbonyl)amino]methyl}-1,6-diethyl-1H-pyrazolo[3,4-b]pyridin-4-yl)amino]-1-piperidinecarboxamide] | 0.126 to 1 |
| CCc1nc2c(cnn2CC)c(NC2CCN(C(N)=O)CC2)c1CNC(=O)c1ccc(C)cc1O [Example 245, 4-{[1,6-diethyl-5-({[(2-hydroxy-4-methylphenyl)carbonyl]amino}methyl)-1H-pyrazolo[3,4-b]pyridin-4-yl]amino}-1-piperidinecarboxamide] | 0.01 to 0.1 |
| CCc1nc2c(cnn2CC)c(NC2CCOCC2)c1CNC(=O)c1cnccn1 [Example 146, N-{[1,6-diethyl-4-(tetrahydro-2H-pyran-4-ylamino)-1H-pyrazolo[3,4-b]pyridin-5-yl]methyl}-2-pyrazinecarboxamide] | 0.126 to 1 |
| CCc1nc2c(cnn2CC)c(NC2CCN(C(N)=O)CC2)c1CNC(=O)c1ccc(NC(C)=O)cc1O [Example 241, 4-({5-[({[4-(acetylamino)-2-hydroxyphenyl]carbonyl}amino)methyl]-1,6-diethyl-1H-pyrazolo[3,4-b]pyridin-4-yl}amino)-1-piperidinecarboxamide] | 0.01 to 0.1 |
| CCc1nc2c(cnn2CC)c(NC2CCOCC2)c1CNC(=O)c1ccc(C)nc1 [Example 334, N-{[1,6-diethyl-4-(tetrahydro-2H-pyran-4-ylamino)-1H-pyrazolo[3,4-b]pyridin-5-yl]methyl}-6-methyl-3-pyridinecarboxamide] | 0.126 to 1 |
| CCc1nc2c(cnn2CC)c(NC2CCOCC2)c1CNC(=O)c1cccc(NC(C)=O)c1 [Example 147, 3-(acetylamino)-N-{[1,6-diethyl-4-(tetrahydro-2H-pyran-4-ylamino)-1H-pyrazolo[3,4-b]pyridin-5-yl]methyl}benzamide] | 0.01 to 0.1 |
| CCc1nc2c(cnn2CC)c(NC2CCOCC2)c1CNC(=O)c1ccnnc1 [Example 150, N-{[1,6-diethyl-4-(tetrahydro-2H-pyran-4-ylamino)-1H-pyrazolo[3,4-b]pyridin-5-yl]methyl}-4-pyridazinecarboxamide] | 0.126 to 1 |
| CCc1nc2c(cnn2CC)c(NC2CCOCC2)c1CNC(=O)c1cnco1 [Example 239, N-{[1,6-diethyl-4-(tetrahydro-2H-pyran-4-ylamino)-1H-pyrazolo[3,4-b]pyridin-5-yl]methyl}-1,3-oxazole-5-carboxamide] | 0.126 to 1 |

| SMILES | IC50 [nM] |
| --- | --- |
| CCc1nc2c(cnn2CC)c(NC2CCOCC2)c1CNC(=O)N1CCCC1 [Example 289, N-{[1,6-diethyl-4-(tetrahydro-2H-pyran-4-ylamino)-1H-pyrazolo[3,4-b]pyridin-5-yl]methyl}-1-pyrrolidinecarboxamide] | 0.126 to 1 |
| CCc1nc2c(cnn2CC)c(NC2CCOCC2)c1CNC(=O)c1ccsc1 [Example 235, N-{[1,6-diethyl-4-(tetrahydro-2H-pyran-4-ylamino)-1H-pyrazolo[3,4-b]pyridin-5-yl]methyl}-3-thiophenecarboxamide] | 0.01 to 0.1 |
| CCc1nc2c(cnn2CC)c(NC2CCOCC2)c1CNC(=O)c1ccc(C(C)(C)C)cc1 [Example 252, N-{[1,6-diethyl-4-(tetrahydro-2H-pyran-4-ylamino)-1H-pyrazolo[3,4-b]pyridin-5-yl]methyl}-4-(1,1-dimethylethyl)benzamide] | 0.01 to 0.1 |
| CCc1nc2c(cnn2CC)c(NC2CCOCC2)c1CNC(=O)c1ccc(C(F)(F)F)nc1 [Example 326, N-{[1,6-diethyl-4-(tetrahydro-2H-pyran-4-ylamino)-1H-pyrazolo[3,4-b]pyridin-5-yl]methyl}-6-(trifluoromethyl)-3-pyridinecarboxamide] | 0.126 to 1 |
| CCOc1ccccc1C(=O)NCc1c(C)nc2c(cnn2CC)c1NC1CCOCC1 [Example 219, N-{[1-ethyl-6-methyl-4-(tetrahydro-2H-pyran-4-ylamino)-1H-pyrazolo[3,4-b]pyridin-5-yl]methyl}-2-(ethyloxy)benzamide] | 0.126 to 1 |
| CCn1ncc2c(NC3CCN(C(N)=O)CC3)c(CNC(=O)c3ccc(C(C)(C)C)cc3)c(C)nc21 [Example 262, 4-({5-[({[4-(1,1-dimethylethyl)phenyl]carbonyl}amino)methyl]-1-ethyl-6-methyl-1H-pyrazolo[3,4-b]pyridin-4-yl}amino)-1-piperidinecarboxamide] | 0.01 to 0.1 |
| CCc1nc2c(cnn2CC)c(NC2CCOCC2)c1CNC(=O)c1ccc(NC(C)=O)cc1OC [Example 157, 4-(acetylamino)-N-{[1,6-diethyl-4-(tetrahydro-2H-pyran-4-ylamino)-1H-pyrazolo[3,4-b]pyridin-5-yl]methyl}-2-(methyloxy)benzamide] | 0.01 to 0.1 |
| CCc1nc2c(cnn2CC)c(NC2CCOCC2)c1CNC(=O)c1cccc2c1CCC2 [Example 189, N-{[1,6-diethyl-4-(tetrahydro-2H-pyran-4-ylamino)-1H-pyrazolo[3,4-b]pyridin-5-yl]methyl}-2,3-dihydro-1H-indene-4-carboxamide] | 0.126 to 1 |
| CCc1nc2c(cnn2CC)c(NC2CCOCC2)c1CNC(=O)c1cc(C#N)c(C(C)C)cc1OC [Example 188, 5-cyano-N-{[1,6-diethyl-4-(tetrahydro-2H-pyran-4-ylamino)-1H-pyrazolo[3,4-b]pyridin-5-yl]methyl}-4-(1-methylethyl)-2-(methyloxy)benzamide] | 0.01 to 0.1 |
| CCn1ncc2c(NC3CCN(C(N)=O)CC3)c(CNC(=O)c3ccc(C4CCCC4)cc3)c(C)nc21 [Example 273, 4-{[5-({[(4-cyclopentylphenyl)carbonyl]amino}methyl)-1-ethyl-6-methyl-1H-pyrazolo[3,4-b]pyridin-4-yl]amino}-1-piperidinecarboxamide] | 0.01 to 0.1 |
| CCn1ncc2c(NC3CCOCC3)c(CN3Cc4ccccc4C3=O)c(C)nc21 [Example 300, 2-{[1-ethyl-6-methyl-4-(tetrahydro-2H-pyran-4-ylamino)-1H-pyrazolo[3,4-b]pyridin-5-yl]methyl}-2,3-dihydro-1H-isoindol-1-one] | 0.126 to 1 |
| CCc1nc2c(cnn2CC)c(NC2CCOCC2)c1CNC(=O)c1ccc(N2CCCCC2)cc1 [Example 175, N-{[1,6-diethyl-4-(tetrahydro-2H-pyran-4-ylamino)-1H-pyrazolo[3,4-b]pyridin-5-yl]methyl}-4-(1-piperidinyl)benzamide] | 0.01 to 0.1 |
| CCc1nc2c(cnn2CC)c(NC2CCOCC2)c1CNC(=O)c1oc(C)nc1C [Example 335, N-{[1,6-diethyl-4-(tetrahydro-2H-pyran-4-ylamino)-1H-pyrazolo[3,4-b]pyridin-5-yl]methyl}-2,4-dimethyl-1,3-oxazole-5-carboxamide formate] | 0.126 to 1 |
| CCc1nc2c(cnn2CC)c(NC2CCOCC2)c1CNC(=O)c1cnc(C)cn1 [Example 236, N-{[1,6-diethyl-4-(tetrahydro-2H-pyran-4-ylamino)-1H-pyrazolo[3,4-b]pyridin-5-yl]methyl}-5-methyl-2-pyrazinecarboxamide] | 0.01 to 0.1 |
| CCc1nc2c(cnn2CC)c(NC2CCOCC2)c1CNC(=O)c1ccnn1C [Example 158, N-{[1,6-diethyl-4-(tetrahydro-2H-pyran-4-ylamino)-1H-pyrazolo[3,4-b]pyridin-5-yl]methyl}-1-methyl-1H-pyrazole-5-carboxamide] | 0.126 to 1 |
| CCc1nc2c(cnn2CC)c(NC2CCN(C(N)=O)CC2)c1CNC(=O)c1ccccc1F [Example 246, 4-{[1,6-diethyl-5-({[(2-fluorophenyl)carbonyl]amino}methyl)-1H-pyrazolo[3,4-b]pyridin-4-yl]amino}-1-piperidinecarboxamide] | 0.01 to 0.1 |
